The record followed here is article PMC12811658, “Design, Synthesis, and Structural Evolution of Pseudo‐Natural Product IDO1 Inhibitors and Degraders” (Angewandte Chemie (International Ed. in English), 2025).

For experiment [1], the target named is T1, recombinant human IDO1 (Homo sapiens, UniProt P14902).
T1 construct: The GST-tag of IDO1 was removed to obtain untagged full-length IDO1l using PreScission protease; GST (N, cleaved yes); made in house; own inference
Nature of the experiment: IDO1 enzymatic assay in vitro. Type of experiment: biochemical. Particulars: for inhibition at 14 µM / IDO1 activity IC50 [µM] (in vitro assay) / IC50: pre-incubation 37 °C 45 min; for inhibition at 14 µM: mean ± SD; for IDO1 activity IC50 [µM] (in vitro assay) / IC50: determined if inhibition at 14 µM higher than 50%; for in vitro IDO1 inhibition (in words): up to 14 µM, incubated with IDO1 for 45 min.

Experiment [2] addresses IDO1 protein levels in BxPC3 cells (Homo sapiens, UniProt P14902). Nature of the experiment: IDO1 immunoblotting (degradation). Type of experiment: cell-based. More on the design: endogenous in cells; host or cells: BxPC3 (DSMZ), IFN-γ stimulated. Particulars: for Max. degradation (%): 24 h incubation, mean ± SD; for Dmax at 0.1 µM: BXPC-3, @100 nM.
Experiment [3] relates to Kyn levels in BxPC3 cells (kynurenine generated by IDO1). Nature of the experiment: Cellular Kyn assay (automated Kyn screening assay). It is filed as cell-based. Particulars: for IC50: Homo sapiens, BXPC-3, 48 h, IFN-γ, L-Trp and compounds 48 h, mean ± SD, read-out: IC50 (Kyn assay), reduction of kynurenine levels.

Where only a bound is given, the exact number is not on record here.

Sequence of IDO1 protein levels in BxPC3 cells (P14902 whole entry): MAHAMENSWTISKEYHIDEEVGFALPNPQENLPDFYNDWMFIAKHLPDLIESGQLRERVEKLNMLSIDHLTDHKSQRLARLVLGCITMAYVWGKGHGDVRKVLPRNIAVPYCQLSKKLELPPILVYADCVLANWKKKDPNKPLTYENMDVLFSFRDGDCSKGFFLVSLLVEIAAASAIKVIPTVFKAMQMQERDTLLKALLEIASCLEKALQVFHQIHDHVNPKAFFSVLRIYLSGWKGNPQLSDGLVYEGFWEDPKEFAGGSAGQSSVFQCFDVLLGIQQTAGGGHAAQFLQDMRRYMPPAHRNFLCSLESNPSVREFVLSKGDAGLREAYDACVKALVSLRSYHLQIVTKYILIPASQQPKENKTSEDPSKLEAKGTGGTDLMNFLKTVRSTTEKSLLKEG
T1 sequence (P14902 whole entry): as above

For `C#Cc1ccc(NC(=O)OC[C@]23CN(S(=O)(=O)c4ccc(C(C)(C)C)cc4)C[C@H]2C[C@H]2C[C@@H]3C2(C)C)cc1` [43 (iDeg-3), ((3aS,4R,6R,7aS)-2-((4-(tert-butyl)phenyl)sulfonyl)-5,5-dimethyloctahydro-3aH-4,6-methanoisoindol-3a-yl)methyl (4-ethynylphenyl)carbamate], in experiment [1], the inhibition at 14 µM is < 25%; the “IDO1 activity IC50 [µM] (in vitro assay)” value is “– (Inactive: >75% Kyn level observed up to a concentration of 14 µM and no IC50 value obtained)”. Moreover, in experiment [2] (10 nM), the “Max. degradation (%)” value is given as 29 ± 16 (5) %. Further, the “Max. degradation (%)” value in experiment [2] (100 nM) is recorded as 62 ± 10 (5) %. Moreover, the “Degradation Efficiency (%)” value in experiment [2] (100 nM, BxPC3 cells, heatmap Fig. 3d) is recorded as 62%. In experiment [3], the “fold increase in potency compared to iDeg-2 in Kyn assay” value was “three‐fold” and the IC50 was determined as 46 ± 21 nM.
Turning to `Cc1cc(C(C)(C)C)ccc1S(=O)(=O)N1C[C@H]2C[C@H]3C[C@H](C3(C)C)[C@@]2(COC(=O)Nc2ccc(I)cc2)C1` [79 (iDeg-4), ((3aS,4R,6R,7aS)-2-((4-(tert-butyl)-2-methylphenyl)sulfonyl)-5,5-dimethyloctahydro-3aH-4,6-methanoisoindol-3a-yl)methyl (4-iodophenyl)carbamate], in experiment [1], the inhibition at 14 µM turned out to be 25 ± 5%, the IC50 is > 14 µM and the “in vitro IDO1 inhibition (in words)” value is “weak inhibitors”. Also, in experiment [2] (10 nM), the “Max. degradation (%)” value was 31 ± 6 (3) %. Besides, the “Max. degradation (%)” value in experiment [2] (100 nM) is given as 65 ± 10 (14) %. The half-maximal inhibitory concentration (IC50) in experiment [3] is 25 ± 5 nM.
In the case of `CC(C)(C(=O)O)c1ccc(S(=O)(=O)N2C[C@H]3C[C@H]4C[C@H](C4(C)C)[C@@]3(COC(=O)Nc3ccc(I)cc3)C2)cc1` [92 (iDeg-5), 2-(4-(((3aS,4R,6R,7aS)-3a-((((4-iodophenyl)carbamoyl)oxy)methyl)-5,5-dimethyloctahydro-2H-4,6-methanoisoindol-2-yl)sulfonyl)phenyl)-2-methylpropanoic acid], in experiment [1], the inhibition at 14 µM worked out at 66 ± 8% and the IC50 amounted to 0.82 ± 0.14 µM. Further, the “Max. degradation (%)” value in experiment [2] (10 nM) is 23 ± 22 (5) %. In addition, in experiment [2] (100 nM), the “Max. degradation (%)” value was 46 ± 21 (5) %. Besides, the greatest degradation seen (Dmax) at 0.1 µM in experiment [2] (BxPC3 cells) was 36 to 54%. In experiment [3], the “fold increase in potency compared to iDeg-2 in Kyn assay” value was 4 fold and the IC50 was found to be 30 ± 3 nM.
As for `CCc1cc(C(C)(C)C)ccc1S(=O)(=O)N1C[C@H]2C[C@H]3C[C@H](C3(C)C)[C@@]2(COC(=O)Nc2ccc(I)cc2)C1` [compound 80, ((3aS,4R,6R,7aS)-2-((4-(tert-butyl)-2-ethylphenyl)sulfonyl)-5,5-dimethyloctahydro-3aH-4,6-methanoisoindol-3a-yl)methyl (4-iodophenyl)carbamate], in experiment [1], the inhibition at 14 µM stood at 35 ± 8%, the half-inhibitory concentration (IC50) was > 14 µM and the “in vitro IDO1 inhibition (in words)” value was “weak inhibitors”. Moreover, in experiment [2] (10 nM), the “Max. degradation (%)” value is given as 25 ± 10 (3) %. Also, in experiment [2] (100 nM), the “Max. degradation (%)” value is listed as 56 ± 4 (3) %. Also, the 50% inhibitory concentration (IC50) in experiment [3] is 13 ± 3 nM.
`CC(C)(C)c1ccc(S(=O)(=O)N2C[C@H]3C[C@H]4C[C@H](C4(C)C)[C@@]3(COC(=O)Nc3ccc(I)cc3)C2)c(C2CC2)c1` [compound 81, ((3aS,4R,6R,7aS)-2-((4-(tert-butyl)-2-cyclopropylphenyl)sulfonyl)-5,5-dimethyloctahydro-3aH-4,6-methanoisoindol-3a-yl)methyl (4-iodophenyl)carbamate]: in experiment [1], the inhibition at 14 µM turned out to be 39 ± 1%, the IC50 was > 14 µM and the “in vitro IDO1 inhibition (in words)” value is “weak inhibitors”. Also, the “Max. degradation (%)” value in experiment [2] (10 nM) is 31 ± 18 (3) %. The “Max. degradation (%)” value in experiment [2] (100 nM) was 55 ± 4 (3) %. Also, the half-maximal inhibitory concentration (IC50) in experiment [3] came out at 19 ± 6 nM.
In the case of `COc1cc(C(C)(C)C)ccc1S(=O)(=O)N1C[C@H]2C[C@H]3C[C@H](C3(C)C)[C@@]2(COC(=O)Nc2ccc(I)cc2)C1` [compound 82, ((3aS,4R,6R,7aS)-2-((4-(tert-butyl)-2-methoxyphenyl)sulfonyl)-5,5-dimethyloctahydro-3aH-4,6-methanoisoindol-3a-yl)methyl (4-iodophenyl)carbamate], in experiment [1], the inhibition at 14 µM was < 25%; the “IDO1 activity IC50 [µM] (in vitro assay)” value was “– (Inactive: >75% Kyn level observed up to a concentration of 14 µM and no IC50 value obtained)”. Also, the “Max. degradation (%)” value in experiment [2] (10 nM) is recorded as 14 ± 15 (5) %. The “Max. degradation (%)” value in experiment [2] (100 nM) was 59 ± 16 (5) %. Also, in experiment [3], the half-inhibitory concentration (IC50) stood at 46 ± 15 nM.
Turning to `CC(C)(C)c1ccc(S(=O)(=O)N2C[C@H]3C[C@H]4C[C@H](C4(C)C)[C@@]3(COC(=O)Nc3ccc(I)cc3)C2)c(Br)c1` [compound 83, ((3aS,4R,6R,7aS)-2-((2-bromo-4-(tert-butyl)phenyl)sulfonyl)-5,5-dimethyloctahydro-3aH-4,6-methanoisoindol-3a-yl)methyl (4-iodophenyl)carbamate], in experiment [1], the inhibition at 14 µM was < 25%; the “IDO1 activity IC50 [µM] (in vitro assay)” value is “– (Inactive: >75% Kyn level observed up to a concentration of 14 µM and no IC50 value obtained)”. Also, in experiment [2] (10 nM), the “Max. degradation (%)” value is 24 ± 15 (3) %. Moreover, the “Max. degradation (%)” value in experiment [2] (100 nM) is given as 56 ± 4 (3) %. Moreover, in experiment [3], the IC50 came to 35 ± 6 nM.
Take `CC(C)(C)c1ccc(S(=O)(=O)N2C[C@H]3C[C@H]4C[C@H](C4(C)C)[C@@]3(COC(=O)Nc3ccc(I)cc3)C2)c(I)c1` [compound 84, ((3aS,4R,6R,7aS)-2-((4-(tert-butyl)-2-iodophenyl)sulfonyl)-5,5-dimethyloctahydro-3aH-4,6-methanoisoindol-3a-yl)methyl (4-iodophenyl)carbamate]: in experiment [1], the inhibition at 14 µM came to 16 ± 4%; the “IDO1 activity IC50 [µM] (in vitro assay)” value was “– (Inactive: >75% Kyn level observed up to a concentration of 14 µM and no IC50 value obtained)”. Further, in experiment [2] (10 nM), the “Max. degradation (%)” value was “inactive”. The “Max. degradation (%)” value in experiment [2] (100 nM) was 55 ± 5 (3) %. The IC50 in experiment [3] was 42 ± 15 nM.
Regarding `COC(=O)CC(C)(C)c1ccc(S(=O)(=O)N2C[C@H]3C[C@H]4C[C@H](C4(C)C)[C@@]3(COC(=O)Nc3ccc(I)cc3)C2)cc1` [compound 90, Methyl 3-(4-(((3aS,4R,6R,7aS)-3a-((((4-iodophenyl)carbamoyl)oxy)methyl)-5,5-dimethyloctahydro-2H-4,6-methanoisoindol-2-yl)sulfonyl)phenyl)-3-methylbutanoate], the IC50 in experiment [3] worked out at 32 ± 11 nM.
In the case of `CC(C)(CC(=O)O)c1ccc(S(=O)(=O)N2C[C@H]3C[C@H]4C[C@H](C4(C)C)[C@@]3(COC(=O)Nc3ccc(I)cc3)C2)cc1` [compound 91, 3-(4-(((3aS,4R,6R,7aS)-3a-((((4-iodophenyl)carbamoyl)oxy)methyl)-5,5-dimethyloctahydro-2H-4,6-methanoisoindol-2-yl)sulfonyl)phenyl)-3-methylbutanoic acid], the inhibition at 14 µM in experiment [1] was 59 ± 2%. For the same molecule, the values for the IC50 in experiment [1] and in experiment [3] were 1.9 ± 0.5 µM and 32 ± 7 nM, respectively. Also, the “Max. degradation (%)” value in experiment [2] (10 nM) is given as 27 ± 5 (3) %; in experiment [2] (100 nM), 36 ± 2 (3) %. In experiment [2] (BxPC3 cells), this molecule had a Dmax at 0.1 µM of 36 to 54%.
Regarding `COC(=O)C(C)(C)c1ccc(S(=O)(=O)N2C[C@H]3C[C@H]4C[C@H](C4(C)C)[C@@]3(COC(=O)Nc3ccc(I)cc3)C2)c(OC)c1` [compound 93, Methyl 2-(4-(((3aS,4R,6R,7aS)-3a-((((4-iodophenyl)carbamoyl)oxy)methyl)-5,5-dimethyloctahydro-2H-4,6-methanoisoindol-2-yl)sulfonyl)-3-methoxyphenyl)-2-methylpropanoate], in experiment [1], the inhibition at 14 µM was < 25%; the “IDO1 activity IC50 [µM] (in vitro assay)” value is “– (Inactive: >75% Kyn level observed up to a concentration of 14 µM and no IC50 value obtained)”. The IC50 in experiment [3] is 73 ± 41 nM.
As for `COC(=O)C(C)(C)c1ccc(S(=O)(=O)N2C[C@H]3C[C@H]4C[C@H](C4(C)C)[C@@]3(COC(=O)Nc3ccc(I)cc3)C2)c(Cl)c1` [compound 94, Methyl 2-(3-chloro-4-(((3aS,4R,6R,7aS)-3a-((((4-iodophenyl)carbamoyl)oxy)methyl)-5,5-dimethyloctahydro-2H-4,6-methanoisoindol-2-yl)sulfonyl)phenyl)-2-methylpropanoate], in experiment [1], the inhibition at 14 µM was < 25%; the “IDO1 activity IC50 [µM] (in vitro assay)” value is “– (Inactive: >75% Kyn level observed up to a concentration of 14 µM and no IC50 value obtained)”. Moreover, the half-inhibitory concentration (IC50) in experiment [3] was 43 ± 24 nM.
For the molecule `COc1cc(C(C)(C)C(=O)O)ccc1S(=O)(=O)N1C[C@H]2C[C@H]3C[C@H](C3(C)C)[C@@]2(COC(=O)Nc2ccc(I)cc2)C1` [compound 95, 2-(4-(((3aS,4R,6R,7aS)-3a-((((4-iodophenyl)carbamoyl)oxy)methyl)-5,5-dimethyloctahydro-2H-4,6-methanoisoindol-2-yl)sulfonyl)-3-methoxyphenyl)-2-methylpropanoic acid], the inhibition at 14 µM in experiment [1] was found to be 57 ± 3%. For the same molecule, the half-maximal inhibitory concentration (IC50) in experiment [1] was 0.67 ± 0.1 µM; in experiment [3] it was 80 ± 22 nM. Besides, the “Max. degradation (%)” value in experiment [2] (10 nM) and in experiment [2] (100 nM) was “Inactive (5)” each time.
For the molecule `CC(C)(C(=O)O)c1ccc(S(=O)(=O)N2C[C@H]3C[C@H]4C[C@H](C4(C)C)[C@@]3(COC(=O)Nc3ccc(I)cc3)C2)c(Cl)c1` [compound 96, 2-(3-chloro-4-(((3aS,4R,6R,7aS)-3a-((((4-iodophenyl)carbamoyl)oxy)methyl)-5,5-dimethyloctahydro-2H-4,6-methanoisoindol-2-yl)sulfonyl)phenyl)-2-methylpropanoic acid], in experiment [1], the inhibition at 14 µM is 62 ± 1%. For the same molecule, the 50% inhibitory concentration (IC50) in experiment [1] stood at 0.19 ± 0.1 µM; in experiment [3], 14 ± 3 nM. For the same molecule, the “Max. degradation (%)” value is 15 ± 2 (3) % in experiment [2] (10 nM) and 20 ± 12 (3) % in experiment [2] (100 nM).
